ChEMBL document CHEMBL1201862, “PubChem BioAssay data set” (2004)
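Five compound concentrations were applied to cells in 96-well plates for 48 hours; endpoints were derived by simple linear interpolation of the resulting dose-response curve. GI50: concentration for 50% inhibition of growth.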 Activity calls are given as the source filed them. Rule as the data show it: active = GI50 up to about 1.1 µM and inactive = higher.

Assays:
Test in all cases: inhibition of tumour cell growth, NCI panel, 48 h
ACHN = tested on: ACHN
EKVX = tested on: EKVX
HOP-62 = tested on: HOP-62
KM12 = tested on: KM12
Malme-3M = tested on: Malme-3M
NCI-H23 = tested on: NCI-H23
OVCAR-3 = tested on: OVCAR-3
OVCAR-4 = tested on: OVCAR-4
RXF 393 = tested on: RXF 393
SF-539 = tested on: SF-539
SK-MEL-5 = tested on: SK-MEL-5
SK-OV-3 = tested on: SK-OV-3
SN12C = tested on: SN12C
SNB-19 = tested on: SNB-19
U-251 = tested on: U-251
UACC-62 = tested on: UACC-62
SR = tested on: SR
DU-145 = tested on: DU-145

Measured: GI50

CCN(CC)C(c1ccc(N(C)C)cc1)C(c1ccc(N(C)C)cc1)N(CC)CC (configuration not stated)
inactive: ACHN 47 µM | EKVX > 72.9 µM | HOP-62 61.5 µM | KM12 22.9 µM | Malme-3M 17 µM | NCI-H23 48.3 µM | OVCAR-3 21.5 µM | OVCAR-4 12.9 µM | RXF 393 25.9 µM | SF-539 36.5 µM | SK-MEL-5 16.8 µM | SK-OV-3 > 72.9 µM | SN12C > 72.9 µM | SNB-19 62.8 µM | U-251 > 72.9 µM | UACC-62 20.1 µM

COc1ccc(/C(=C/n2ccnc2)C(=O)c2ccc(OC)c(OC)c2)cc1
inactive: ACHN > 100 µM | EKVX > 100 µM | HOP-62 > 100 µM | KM12 > 100 µM | Malme-3M > 100 µM | NCI-H23 > 100 µM | OVCAR-3 > 100 µM | OVCAR-4 > 100 µM | SF-539 > 100 µM | SK-MEL-5 > 100 µM | SN12C > 100 µM | SNB-19 > 100 µM | SR > 100 µM | U-251 > 100 µM | UACC-62 39.3 µM

CCOC(=O)CCC(NC(=O)Cc1ccc(Oc2nc3ccccc3nc2-c2cccs2)cc1)C(=O)OCC (configuration not stated)
inactive: ACHN 2.44 µM | DU-145 7.45 µM | EKVX 26.1 µM | HOP-62 1.73 µM | KM12 > 100 µM | Malme-3M 22.7 µM | NCI-H23 61.9 µM | OVCAR-3 4.07 µM | OVCAR-4 13.5 µM | RXF 393 2.3 µM | SF-539 5.14 µM | SK-MEL-5 > 100 µM | SN12C 8.89 µM | SNB-19 9.29 µM | SR > 100 µM | U-251 11.4 µM | UACC-62 38.4 µM

Nc1c(Cl)ncnc1NCC1(CO)CCC1
inactive: ACHN > 100 µM | DU-145 > 100 µM | EKVX 90.4 µM | HOP-62 > 100 µM | KM12 > 100 µM | Malme-3M > 100 µM | NCI-H23 > 100 µM | OVCAR-3 > 100 µM | OVCAR-4 > 100 µM | SF-539 > 100 µM | SK-MEL-5 79.4 µM | SN12C > 100 µM | SR > 100 µM | U-251 > 100 µM

Cc1ccc(S(=O)(=O)Oc2nc3ccccc3nc2N(S(=O)(=O)c2ccc(C)cc2)S(=O)(=O)c2ccc(C)cc2)cc1
inactive: ACHN 45.9 µM | DU-145 53.8 µM | EKVX 30.3 µM | KM12 33.7 µM | Malme-3M 49.9 µM | NCI-H23 47.8 µM | OVCAR-3 41.5 µM | RXF 393 76.4 µM | SF-539 29 µM | SK-MEL-5 47.9 µM | SK-OV-3 > 100 µM | SN12C 44 µM | SNB-19 66.8 µM | U-251 39.9 µM | UACC-62 56.5 µM

Cc1ccc(-n2cc(/C(N)=N/O)c3ccccc3c2=O)cc1
inactive: ACHN > 100 µM | EKVX > 100 µM | HOP-62 > 100 µM | KM12 > 100 µM | Malme-3M > 100 µM | NCI-H23 > 100 µM | OVCAR-3 > 100 µM | SF-539 > 100 µM | SK-MEL-5 > 100 µM | SK-OV-3 > 100 µM | SN12C > 100 µM | SNB-19 > 100 µM | SR > 100 µM | U-251 > 100 µM | UACC-62 > 100 µM

Cc1ccccc1Nc1cn(COCc2ccccc2)c(=O)[nH]c1=O
inactive: ACHN > 100 µM | DU-145 80.4 µM | EKVX 30.7 µM | HOP-62 > 100 µM | KM12 57.5 µM | NCI-H23 56.5 µM | OVCAR-3 79.8 µM | OVCAR-4 39.5 µM | RXF 393 > 100 µM | SK-MEL-5 55 µM | SN12C > 100 µM | SNB-19 > 100 µM | U-251 > 100 µM | UACC-62 75.2 µM

c1ccc2c(c1)[n-]n1c3ccc4nonc4c3n[n+]21
inactive: ACHN > 100 µM | DU-145 > 100 µM | EKVX > 100 µM | HOP-62 84.5 µM | KM12 > 100 µM | Malme-3M > 100 µM | NCI-H23 > 100 µM | OVCAR-3 > 100 µM | OVCAR-4 > 100 µM | RXF 393 > 100 µM | SF-539 > 100 µM | SK-MEL-5 > 100 µM | SN12C > 100 µM | SNB-19 > 100 µM | SR > 100 µM | U-251 > 100 µM | UACC-62 > 100 µM

O=C(NNC(c1ccccc1)C(F)(F)F)c1ccncc1 (configuration not stated)
inactive: ACHN > 100 µM | DU-145 > 100 µM | EKVX > 100 µM | HOP-62 > 100 µM | KM12 > 100 µM | Malme-3M > 100 µM | NCI-H23 > 100 µM | OVCAR-4 > 100 µM | SF-539 > 100 µM | SK-MEL-5 > 100 µM | SN12C > 100 µM | SNB-19 > 100 µM | SR > 100 µM | U-251 > 100 µM

O=C(CCCNC(=O)OCc1ccccc1)OCc1ccc2c(c1)C(=O)c1ccccc1C2=O
inactive: ACHN > 100 µM | EKVX > 100 µM | HOP-62 30.6 µM | KM12 > 100 µM | Malme-3M > 100 µM | NCI-H23 45.6 µM | OVCAR-3 > 100 µM | OVCAR-4 > 100 µM | RXF 393 22.2 µM | SF-539 23.1 µM | SK-MEL-5 > 30.7 µM | SK-OV-3 29.6 µM | SN12C > 10.2 µM | SNB-19 51.4 µM | SR > 100 µM | U-251 86.1 µM | UACC-62 > 100 µM

O=C1C(c2ccccc2)=C(c2ccccc2)C(c2ccc(Sc3ccc(C4=C(c5ccccc5)C(=O)C(c5ccccc5)=C4c4ccccc4)cc3)cc2)=C1c1ccccc1
inactive: EKVX > 100 µM | HOP-62 60.7 µM | KM12 > 100 µM | Malme-3M > 100 µM | NCI-H23 > 100 µM | OVCAR-3 > 100 µM | OVCAR-4 > 100 µM | RXF 393 64.9 µM | SF-539 72.9 µM | SK-MEL-5 > 100 µM | SK-OV-3 > 100 µM | SN12C > 100 µM | SNB-19 > 100 µM | SR > 100 µM | U-251 48.6 µM | UACC-62 > 100 µM

Clc1ccc2c(Cl)ncnc2c1I
inactive: ACHN > 10 µM | EKVX 10.4 µM | HOP-62 > 100 µM | KM12 > 100 µM | Malme-3M > 100 µM | NCI-H23 > 100 µM | OVCAR-3 > 100 µM | OVCAR-4 > 100 µM | RXF 393 42 µM | SK-MEL-5 > 100 µM | SK-OV-3 > 100 µM | SN12C > 100 µM | SNB-19 > 100 µM | SR 31.2 µM | U-251 > 100 µM | UACC-62 63.7 µM

C/C(=N/N(C=O)C[n+]1ccccc1)C(CN(CC(C)C)CC(C)C)C(=O)Nc1ccc(C)cc1C (configuration not stated)
inactive: ACHN 94.2 µM | EKVX 17.8 µM | HOP-62 > 100 µM | KM12 84.1 µM | Malme-3M > 100 µM | NCI-H23 > 100 µM | OVCAR-3 > 100 µM | OVCAR-4 > 100 µM | RXF 393 42.9 µM | SF-539 > 100 µM | SK-MEL-5 57.1 µM | SK-OV-3 > 100 µM | SN12C > 100 µM | SNB-19 67.9 µM | SR 84.1 µM | UACC-62 79.6 µM
